Measurements published in publication PMC8480901 (PLoS ONE, 2021).
Where “and” joins values, the source holds several entries; their conditions need not be identical. Equal entries are not always repeated.

Test system: human PBMCs
Experiment: LPS-induced cytokine and chemokine levels in human PBMC supernatant (Luminex, ELISA)
Assay type: cell-based
Conditions: for TNF-α % reduction / TNF-α [pg/mL], Mean / TNF-α [pg/mL], individual value / GM-CSF % reduction / GM-CSF [pg/mL], Mean / GM-CSF [pg/mL], individual value / IL-1β % reduction / IL-1β [pg/mL], Mean / IL-1β [pg/mL], individual value / IL-6 % reduction / IL-6 [pg/mL], Mean / IL-6 [pg/mL], individual value / IL-8 % reduction / IL-8 [pg/mL], Mean / IL-8 [pg/mL], individual value: LPS-stimulated human PBMC supernatant

Q: What does the source list for `C=C[C@]1(C)C[C@@H](OC(=O)CS[C@@H]2CC[C@@H](N)C[C@H]2O)[C@]2(C)[C@H](C)CC[C@]3(CCC(=O)[C@H]32)[C@@H](C)[C@@H]1O` [Lefamulin]?
A: TNF-α % reduction (0.03 µM): 19%; TNF-α [pg/mL], Mean (0.03 µM): 7210 pg/mL; TNF-α [pg/mL], individual value (0.03 µM): 7885 pg/mL and 6534 pg/mL; GM-CSF % reduction (0.1 µM): -3%; GM-CSF [pg/mL], Mean (0.1 µM): 677 pg/mL; GM-CSF [pg/mL], individual value (0.1 µM): 676 pg/mL and 678 pg/mL; IL-1β % reduction (0.1 µM): 0.28%; IL-1β [pg/mL], Mean (0.1 µM): 12749 pg/mL; IL-1β [pg/mL], individual value (0.1 µM): 11912 pg/mL and 13586 pg/mL; IL-6 % reduction (0.1 µM): 4%; IL-6 [pg/mL], Mean (0.1 µM): 33560 pg/mL; IL-6 [pg/mL], individual value (0.1 µM): 32908 pg/mL and 34212 pg/mL; IL-8 % reduction (0.1 µM): 6%; IL-8 [pg/mL], Mean (0.1 µM): 2899 pg/mL; IL-8 [pg/mL], individual value (0.1 µM): 2852 pg/mL and 2946 pg/mL; TNF-α % reduction (0.1 µM): 9%; TNF-α [pg/mL], Mean (0.1 µM): 8157 pg/mL; TNF-α [pg/mL], individual value (0.1 µM): 7880 pg/mL and 8433 pg/mL; GM-CSF % reduction (0.3 µM): -3%; GM-CSF [pg/mL], Mean (0.3 µM): 677 pg/mL; GM-CSF [pg/mL], individual value (0.3 µM): 692 pg/mL and 662 pg/mL; IL-1β % reduction (0.3 µM): -12%; IL-1β [pg/mL], Mean (0.3 µM): 14379 pg/mL; IL-1β [pg/mL], individual value (0.3 µM): 14814 pg/mL and 13945 pg/mL; IL-6 % reduction (0.3 µM): -0.0984%; IL-6 [pg/mL], Mean (0.3 µM): 34943 pg/mL; IL-6 [pg/mL], individual value (0.3 µM): 35534 pg/mL and 34352 pg/mL; IL-8 % reduction (0.3 µM): -13%; IL-8 [pg/mL], Mean (0.3 µM): 3213 pg/mL; IL-8 [pg/mL], individual value (0.3 µM): 3328 pg/mL and 3097 pg/mL; TNF-α % reduction (0.3 µM): -1.74%; TNF-α [pg/mL], Mean (0.3 µM): 9093 pg/mL; TNF-α [pg/mL], individual value (0.3 µM): 9382 pg/mL and 8804 pg/mL; GM-CSF % reduction (1 µM): -5.35%; GM-CSF [pg/mL], Mean (1 µM): 693 pg/mL; GM-CSF [pg/mL], individual value (1 µM): 646 pg/mL and 740 pg/mL; IL-1β % reduction (1 µM): -4%; IL-1β [pg/mL], Mean (1 µM): 13318 pg/mL; IL-1β [pg/mL], individual value (1 µM): 12337 pg/mL and 14300 pg/mL; IL-6 % reduction (1 µM): -4%; IL-6 [pg/mL], Mean (1 µM): 36293 pg/mL; IL-6 [pg/mL], individual value (1 µM): 36311 pg/mL and 36275 pg/mL; IL-8 % reduction (1 µM): -10%; IL-8 [pg/mL], Mean (1 µM): 3154 pg/mL; IL-8 [pg/mL], individual value (1 µM): 3230 pg/mL and 3077 pg/mL; TNF-α % reduction (1 µM): -5.41%; TNF-α [pg/mL], Mean (1 µM): 9420 pg/mL; TNF-α [pg/mL], individual value (1 µM): 9688 pg/mL and 9151 pg/mL; GM-CSF % reduction (3 µM): -8%; GM-CSF [pg/mL], Mean (3 µM): 711 pg/mL; GM-CSF [pg/mL], individual value (3 µM): 719 pg/mL and 703 pg/mL; IL-1β % reduction (3 µM): 4%; IL-1β [pg/mL], Mean (3 µM): 12272 pg/mL; IL-1β [pg/mL], individual value (3 µM): 10817 pg/mL and 13728 pg/mL; IL-6 % reduction (3 µM): -8.52%; IL-6 [pg/mL], Mean (3 µM): 37884 pg/mL; IL-6 [pg/mL], individual value (3 µM): 36958 pg/mL and 38809 pg/mL; IL-8 % reduction (3 µM): -3%; IL-8 [pg/mL], Mean (3 µM): 3044 pg/mL; IL-8 [pg/mL], individual value (3 µM): 3098 pg/mL and 2991 pg/mL; TNF-α % reduction (3 µM): -12%; TNF-α [pg/mL], Mean (3 µM): 9993 pg/mL; TNF-α [pg/mL], individual value (3 µM): 8826 pg/mL and 11161 pg/mL; GM-CSF % reduction (10 µM): -9%; GM-CSF [pg/mL], Mean (10 µM): 717 pg/mL; GM-CSF [pg/mL], individual value (10 µM): 744 pg/mL and 689 pg/mL; IL-1β % reduction (10 µM): -2.68%; IL-1β [pg/mL], Mean (10 µM): 13127 pg/mL; IL-1β [pg/mL], individual value (10 µM): 12893 pg/mL and 13362 pg/mL; IL-6 % reduction (10 µM): -16%; IL-6 [pg/mL], Mean (10 µM): 40496 pg/mL; IL-6 [pg/mL], individual value (10 µM): 38929 pg/mL and 42063 pg/mL; IL-8 % reduction (10 µM): 13%; IL-8 [pg/mL], Mean (10 µM): 2781 pg/mL; IL-8 [pg/mL], individual value (10 µM): 2867 pg/mL and 2696 pg/mL; TNF-α % reduction (10 µM): -3.32%; TNF-α [pg/mL], Mean (10 µM): 9234 pg/mL; TNF-α [pg/mL], individual value (10 µM): 8438 pg/mL and 10030 pg/mL; GM-CSF % reduction (30 µM): -38%; GM-CSF [pg/mL], Mean (30 µM): 905 pg/mL; GM-CSF [pg/mL], individual value (30 µM): 938 pg/mL and 871 pg/mL; IL-1β % reduction (30 µM): -19%; IL-1β [pg/mL], Mean (30 µM): 15264 pg/mL; IL-1β [pg/mL], individual value (30 µM): 15102 pg/mL and 15425 pg/mL; IL-6 % reduction (30 µM): -24%; IL-6 [pg/mL], Mean (30 µM): 43122 pg/mL; IL-6 [pg/mL], individual value (30 µM): 44285 pg/mL and 41958 pg/mL; IL-8 % reduction (30 µM): 27%; IL-8 [pg/mL], Mean (30 µM): 2563 pg/mL; IL-8 [pg/mL], individual value (30 µM): 2485 pg/mL and 2640 pg/mL; TNF-α % reduction (30 µM): 33%; TNF-α [pg/mL], Mean (30 µM): 6044 pg/mL; TNF-α [pg/mL], individual value (30 µM): 6330 pg/mL and 5758 pg/mL; GM-CSF % reduction (100 µM): -97%; GM-CSF [pg/mL], Mean (100 µM): 1293 pg/mL; GM-CSF [pg/mL], individual value (100 µM): 1274 pg/mL and 1313 pg/mL; IL-1β % reduction (100 µM): -71%; IL-1β [pg/mL], Mean (100 µM): 21910 pg/mL; IL-1β [pg/mL], individual value (100 µM): 21940 pg/mL and 21880 pg/mL; IL-6 % reduction (100 µM): 23%; IL-6 [pg/mL], Mean (100 µM): 26707 pg/mL; IL-6 [pg/mL], individual value (100 µM): 26414 pg/mL and 27001 pg/mL; IL-8 % reduction (100 µM): 11%; IL-8 [pg/mL], Mean (100 µM): 2809 pg/mL; IL-8 [pg/mL], individual value (100 µM): 2812 pg/mL and 2806 pg/mL; TNF-α % reduction (100 µM): 74%; TNF-α [pg/mL], Mean (100 µM): 2354 pg/mL; TNF-α [pg/mL], individual value (100 µM): 2393 pg/mL and 2315 pg/mL; levels of the measured LPS-induced cytokines, chemokines, or MMP-9 in supernatants (human PBMCs, concentrations tested (100 μM not shown)): little to no reduction
